# Laboratory results taken from patent US10759865B2, “Treatment of diabetes mellitus” (priority 2017, dated 2020).
# Where a name gives a salt, the structure may show the parent alone.
# System: patient diagnosed with IDDM
# Assay: treatment of a IDDM patient, blood IDDM markers over time
# Type: in vivo, human
# Parameters: Insulin Auto Ab (<0.4) / IA2 Ab (Islet cell Ab Screen) (<0.8) / Glucose / Insulin (2-19.6) / HgbA1C / GAD-65 (<5): unit not given here
# Method: A patient diagnosed with IDDM was treated with 8 units of exogenous long-acting insulin per day (administered in the evening) and 1 unit of short-acting insulin per 6 grams of carbohydrate food intake (administered before each meal).
# Specific stimulation high-carb diet was introduced occasionally to monitor the patient's pancreatic ability to respond to the glycemic demands.
# Each IVIG dose was administered in one continuous infusion session. From week 16 to week 42, the patient was also treated with alpha one antitrypsin.
# Throughout the patient's treatment, the patient's blood was drawn at the time points indicated in Tables 1-2 below, and analyzed by established testing laboratories with respect to standard IDDM blood parameters (see Tables 1-2, top row of each table listing the markers assayed; the numerical values in parenthesis after some of the markers indicate normal reference levels).
# The patient was dosed at 750 mg intravenously on weeks 87, 88, 89 and 90.
# Tables 1 and 2 describe the same treatment but include data points with respect to different markers tested.
# [1] = week 19, 8 mg BID, also alpha one antitrypsin
# [2] = week 22, 8 mg BID, also alpha one antitrypsin
# [3] = week 25, 8 mg BID, also alpha one antitrypsin
# [4] = week 26, 16 mg BID, also alpha one antitrypsin
# [5] = week 29, 16 mg BID, also alpha one antitrypsin
# [6] = week 30, 16 mg BID, also alpha one antitrypsin
# [7] = week 36, 16 mg BID, also alpha one antitrypsin
# [8] = week 47, 16 mg BID, IVIG 2, 1, 1 mg/Kg in week 44
# [9] = week 50, 16 mg BID, IVIG weeks 44, 47.5
# [10] = week 53, 16 mg BID, IVIG weeks 44, 47.5, 50.5
# [11] = week 57, 16 mg BID, IVIG weeks 44-54
# [12] = week 61, 16 mg BID, IVIG weeks 44-54
# [13] = week 66, 16 mg BID, IVIG weeks 44-54
# [14] = week 70, 16 mg BID, IVIG weeks 44-54
# [15] = week 75, 16 mg BID, IVIG weeks 44-54
# [16] = week 79, 5 mg QAM & 10 mg QHS, IVIG weeks 44-54
# [17] = week 82.5, 10 mg BID, IVIG weeks 44-54
# [18] = week 87.5, 10 mg BID, IVIG 2, 1, 1 gm/Kg week 86, Rituxan 750 mg iv week 87
# [19] = week 91.25, 10 mg BID, IVIG weeks 86, 89, Rituxan 750 mg iv weeks 87-90
# [20] = week 92.25, 10 mg BID, IVIG weeks 86, 89, Rituxan 750 mg iv weeks 87-90
# [21] = week 99.25, 10 mg BID, IVIG weeks 86, 89, Rituxan 750 mg iv weeks 87-90
structure (smiles),measurement,setting,value
C[C@@H]1CCN(C(=O)CC#N)C[C@@H]1N(C)c1ncnc2[nH]ccc12 [Tofacitinib],overall weight and muscle mass,about 10 months post initiation of tofacitinib treatment,gained overall weight and muscle mass
same,auto-antibody blood titers,"about 10 months post initiation, tofacitinib before IVIG",no further change
same,combination effect of tofacitinib treatment and IVIG treatment,"human, in vivo",synergistic effect
same,need for short-acting insulin,"starting three days post initiation, 5 mg twice-daily (free base)",did not receive any short-acting insulin
same,need for exogenous insulin,"starting three weeks post initiation, 5 mg twice-daily (free base)",did not receive any exogenous insulin
same,pancreatic islet-cell auto-antibodies and anti-insulin auto-antibodies,upon treatment with tofacitinib (Table 1),reduction
"C[C@@H]1CCN(C(=O)CC#N)C[C@@H]1N(C)c1ncnc2[nH]ccc12 [tofacitinib citrate, (3R,4R)-4-methyl-3-(methyl-7H-pyrrolo[2,3-d]pyrimidin-4-ylamino)-β-oxo-1-piperidinepropanenitrile, 2-hydroxy-1,2,3-propanetricarboxylate (1:1)]",C-Peptide (0.8-3.85),"week 4, 8 mg BID",2.66
same,IA2 Ab (Islet cell Ab Screen) (<0.8),"week 4, 8 mg BID",43.8
same,Insulin (2-19.6),"week 4, 8 mg BID",17.1
same,Insulin Auto Ab (<0.4),"week 4, 8 mg BID",7.2
same,C-Peptide (0.8-3.85),"week 9, 8 mg BID",1.5
same,HgbA1C,"week 9, 8 mg BID",7.2
same,Insulin (2-19.6),"week 9, 8 mg BID",7.8
same,C-Peptide (0.8-3.85),"week 10, 8 mg BID",4.7
same,IA2 Ab (Islet cell Ab Screen) (<0.8),"week 10, 8 mg BID",>50
same,Insulin (2-19.6),"week 10, 8 mg BID",34.5
same,Insulin Auto Ab (<0.4),"week 10, 8 mg BID",64
same,C-Peptide (0.8-3.85),"week 13, 8 mg BID",1.43
same,Glucose,"week 13, 8 mg BID",104
same,IA2 Ab (Islet cell Ab Screen) (<0.8),"week 13, 8 mg BID",46.2
same,Insulin Auto Ab (<0.4),"week 13, 8 mg BID",6.1
same,Islet Cell Ab Titers,"week 13, 8 mg BID",320
same,C-Peptide (0.8-3.85),[1],1.79
same,GAD-65 (<5),[1],<5
same,Glucose,[1],126
same,HgbA1C,[1],6.1
same,IA2 Ab (Islet cell Ab Screen) (<0.8),[1],37.7
same,Insulin (2-19.6),[1],12
same,Insulin Auto Ab (<0.4),[1],6.6
same,Islet Cell Ab Titers,[1],80
same,Glucose,[2],210
same,HgbA1C,[2],6.1
same,Insulin (2-19.6),[2],24.8
same,Insulin Auto Ab (<0.4),[2],4
same,Islet Cell Ab Titers,[2],negative
same,Insulin Auto Ab (<0.4),[3],5.3
same,Islet Cell Ab Titers,[3],20
same,C-Peptide (0.8-3.85),[4],2.19
same,GAD-65 (<5),[4],<5
same,Glucose,[4],93
same,IA2 Ab (Islet cell Ab Screen) (<0.8),[4],47.3
same,Insulin (2-19.6),[4],12
same,Insulin Auto Ab (<0.4),[4],5
same,Islet Cell Ab Titers,[4],negative
same,C-Peptide (0.8-3.85),[5],1.34
same,Glucose,[5],85
same,HgbA1C,[5],6.2
same,IA2 Ab (Islet cell Ab Screen) (<0.8),[5],47.7
same,Insulin (2-19.6),[5],5.4
same,Insulin Auto Ab (<0.4),[5],4.6
same,Islet Cell Ab Titers,[5],20
same,C-Peptide (0.8-3.85),[6],2.74
same,GAD-65 (<5),[6],<5
same,Glucose,[6],143
same,HgbA1C,[6],6.3
same,IA2 Ab (Islet cell Ab Screen) (<0.8),[6],43.8
same,Insulin (2-19.6),[6],34.3
same,Insulin Auto Ab (<0.4),[6],4.2
same,C-Peptide (0.8-3.85),[7],3.17
same,IA2 Ab (Islet cell Ab Screen) (<0.8),[7],46.5
same,Insulin (2-19.6),[7],31.1
same,Insulin Auto Ab (<0.4),[7],2.4
same,Islet Cell Ab Titers,[7],20
same,HgbA1C,[8],6.9
same,IA2 Ab (Islet cell Ab Screen) (<0.8),[8],17
same,Insulin Auto Ab (<0.4),[8],2.1
same,Islet Cell Ab Titers,[8],negative
same,C-Peptide (0.8-3.85),[9],2.73
same,HgbA1C,[9],6.5
same,IA2 Ab (Islet cell Ab Screen) (<0.8),[9],35.7
same,Insulin (2-19.6),[9],25
same,Insulin Auto Ab (<0.4),[9],0.9
same,Islet Cell Ab Titers,[9],negative
same,C-Peptide (0.8-3.85),[10],2.14
same,GAD-65 (<5),[10],66
same,Glucose,[10],97
same,HgbA1C,[10],6.5
same,IA2 Ab (Islet cell Ab Screen) (<0.8),[10],30
same,Insulin (2-19.6),[10],14.8
same,Insulin Auto Ab (<0.4),[10],0.8
same,Islet Cell Ab Titers,[10],negative
same,C-Peptide (0.8-3.85),[11],5.21
same,GAD-65 (<5),[11],70
same,Glucose,[11],168
same,HgbA1C,[11],6.8
same,IA2 Ab (Islet cell Ab Screen) (<0.8),[11],25.9
same,Insulin (2-19.6),[11],47.3
same,Insulin Auto Ab (<0.4),[11],1
same,Islet Cell Ab Titers,[11],negative
same,C-Peptide (0.8-3.85),[12],4.3
same,GAD-65 (<5),[12],15
same,Glucose,[12],160
same,HgbA1C,[12],6.2
same,IA2 Ab (Islet cell Ab Screen) (<0.8),[12],39.4
same,Insulin (2-19.6),[12],37.2
same,Insulin Auto Ab (<0.4),[12],0.9
same,Islet Cell Ab Titers,[12],negative
same,C-Peptide (0.8-3.85),[13],1.38
same,GAD-65 (<5),[13],7
same,HgbA1C,[13],6.5
same,IA2 Ab (Islet cell Ab Screen) (<0.8),[13],38.8
same,Insulin (2-19.6),[13],7.7
same,Insulin Auto Ab (<0.4),[13],0.9
same,Islet Cell Ab Titers,[13],negative
same,C-Peptide (0.8-3.85),[14],1.22
same,GAD-65 (<5),[14],<5
same,Glucose,[14],112
same,HgbA1C,[14],6.3
same,IA2 Ab (Islet cell Ab Screen) (<0.8),[14],39.4
same,Insulin (2-19.6),[14],6.4
same,Insulin Auto Ab (<0.4),[14],1.7
same,Islet Cell Ab Titers,[14],negative
same,C-Peptide (0.8-3.85),[15],1.33
same,GAD-65 (<5),[15],<5
same,Glucose,[15],113
same,HgbA1C,[15],6.2
same,IA2 Ab (Islet cell Ab Screen) (<0.8),[15],39.2
same,Insulin (2-19.6),[15],6.6
same,Insulin Auto Ab (<0.4),[15],0.7
same,Islet Cell Ab Titers,[15],negative
same,C-Peptide (0.8-3.85),[16],1.61
same,GAD-65 (<5),[16],<5
same,Glucose,[16],85
same,HgbA1C,[16],6.4
same,IA2 Ab (Islet cell Ab Screen) (<0.8),[16],44.5
same,Insulin (2-19.6),[16],5.6
same,Insulin Auto Ab (<0.4),[16],0.5
same,Islet Cell Ab Titers,[16],negative
same,C-Peptide (0.8-3.85),[17],2.81
same,GAD-65 (<5),[17],<5
same,Glucose,[17],230
same,HgbA1C,[17],6.9
same,IA2 Ab (Islet cell Ab Screen) (<0.8),[17],46
same,Insulin (2-19.6),[17],24.1
same,Insulin Auto Ab (<0.4),[17],0.5
same,Islet Cell Ab Titers,[17],negative
same,C-Peptide (0.8-3.85),[18],1.68
same,GAD-65 (<5),[18],105
same,Glucose,[18],278
same,HgbA1C,[18],8.1
same,IA2 Ab (Islet cell Ab Screen) (<0.8),[18],6.5
same,Insulin (2-19.6),[18],6.1
same,Insulin Auto Ab (<0.4),[18],<0.4
same,Islet Cell Ab Titers,[18],negative
same,C-Peptide (0.8-3.85),[19],2.88
same,GAD-65 (<5),[19],131
same,Glucose,[19],148
same,HgbA1C,[19],7.8
same,IA2 Ab (Islet cell Ab Screen) (<0.8),[19],13.1
same,Insulin (2-19.6),[19],47.8
same,Insulin Auto Ab (<0.4),[19],<0.4
same,Islet Cell Ab Titers,[19],negative
same,C-Peptide (0.8-3.85),[20],2.36
same,GAD-65 (<5),[20],48
same,Glucose,[20],148
same,HgbA1C,[20],7.1
same,IA2 Ab (Islet cell Ab Screen) (<0.8),[20],25.6
same,Insulin (2-19.6),[20],33.7
same,Insulin Auto Ab (<0.4),[20],0.5
same,Islet Cell Ab Titers,[20],negative
same,C-Peptide (0.8-3.85),[21],1.41
same,GAD-65 (<5),[21],24
same,Glucose,[21],170
same,HgbA1C,[21],6.9
same,IA2 Ab (Islet cell Ab Screen) (<0.8),[21],26.5
same,Insulin (2-19.6),[21],14.3
same,Insulin Auto Ab (<0.4),[21],0.7
same,Islet Cell Ab Titers,[21],20
